Measurements: paper PMC3954497 (Journal of Medicinal Chemistry, 2014)

What was measured:
[1] = molecular target: NET (Rattus norvegicus, UniProt Q63380); assay: biochemical; format: binding; conditions: 3 h, read-out: Ki [SE interval] NET
[2] = molecular target: DAT (Rattus norvegicus, UniProt P23977); format: binding; conditions: for improvement in DAT affinity vs unsubstituted analogue: 4i vs 4g, 6c vs 6a
[3] = molecular target: SERT (Rattus norvegicus, UniProt P31652); format: binding; conditions: for increase in SERT affinity vs unsubstituted analogue: 4i vs 4g, 6c vs 6a; for displacement at the SERT: rat brain membranes
[4] = system: NCCc1c[nH]c2ccc(O)cc12; assay: cells, lysate or membranes; conditions: pH 7.4; 37.0 °C

Sequence of NET (Q63380 1-617): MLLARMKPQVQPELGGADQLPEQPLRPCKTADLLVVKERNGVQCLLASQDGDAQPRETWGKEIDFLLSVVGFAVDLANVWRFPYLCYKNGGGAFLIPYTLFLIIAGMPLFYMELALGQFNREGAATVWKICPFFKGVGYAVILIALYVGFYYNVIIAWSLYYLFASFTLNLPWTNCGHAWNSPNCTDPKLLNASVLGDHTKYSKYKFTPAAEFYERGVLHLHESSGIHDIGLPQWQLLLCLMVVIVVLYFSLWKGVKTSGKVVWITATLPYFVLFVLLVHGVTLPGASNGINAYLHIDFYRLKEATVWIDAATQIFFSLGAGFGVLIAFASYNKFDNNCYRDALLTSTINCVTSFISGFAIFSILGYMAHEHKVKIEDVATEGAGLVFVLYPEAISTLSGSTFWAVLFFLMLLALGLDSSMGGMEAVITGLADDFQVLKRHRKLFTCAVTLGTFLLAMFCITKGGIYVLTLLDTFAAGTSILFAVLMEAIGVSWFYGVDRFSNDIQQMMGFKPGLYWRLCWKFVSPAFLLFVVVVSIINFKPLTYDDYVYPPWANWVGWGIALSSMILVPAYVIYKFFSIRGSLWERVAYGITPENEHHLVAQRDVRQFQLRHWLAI
Sequence of DAT (P23977 whole entry): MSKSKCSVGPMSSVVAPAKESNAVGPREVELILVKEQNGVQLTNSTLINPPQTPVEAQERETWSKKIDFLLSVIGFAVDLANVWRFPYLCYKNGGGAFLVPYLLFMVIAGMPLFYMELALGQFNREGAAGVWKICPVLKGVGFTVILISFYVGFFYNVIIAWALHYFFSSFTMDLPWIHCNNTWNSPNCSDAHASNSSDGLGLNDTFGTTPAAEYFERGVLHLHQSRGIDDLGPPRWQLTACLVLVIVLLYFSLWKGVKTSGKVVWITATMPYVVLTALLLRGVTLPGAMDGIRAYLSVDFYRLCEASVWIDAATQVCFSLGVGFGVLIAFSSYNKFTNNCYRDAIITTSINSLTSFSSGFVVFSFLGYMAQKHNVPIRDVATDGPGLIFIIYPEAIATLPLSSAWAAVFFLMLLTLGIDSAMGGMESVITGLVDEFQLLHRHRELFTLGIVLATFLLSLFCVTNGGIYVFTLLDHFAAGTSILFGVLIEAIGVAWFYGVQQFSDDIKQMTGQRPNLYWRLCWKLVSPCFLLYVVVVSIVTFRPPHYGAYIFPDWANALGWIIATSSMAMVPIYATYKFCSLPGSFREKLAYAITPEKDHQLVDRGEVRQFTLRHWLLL
Sequence of SERT (P31652 whole entry): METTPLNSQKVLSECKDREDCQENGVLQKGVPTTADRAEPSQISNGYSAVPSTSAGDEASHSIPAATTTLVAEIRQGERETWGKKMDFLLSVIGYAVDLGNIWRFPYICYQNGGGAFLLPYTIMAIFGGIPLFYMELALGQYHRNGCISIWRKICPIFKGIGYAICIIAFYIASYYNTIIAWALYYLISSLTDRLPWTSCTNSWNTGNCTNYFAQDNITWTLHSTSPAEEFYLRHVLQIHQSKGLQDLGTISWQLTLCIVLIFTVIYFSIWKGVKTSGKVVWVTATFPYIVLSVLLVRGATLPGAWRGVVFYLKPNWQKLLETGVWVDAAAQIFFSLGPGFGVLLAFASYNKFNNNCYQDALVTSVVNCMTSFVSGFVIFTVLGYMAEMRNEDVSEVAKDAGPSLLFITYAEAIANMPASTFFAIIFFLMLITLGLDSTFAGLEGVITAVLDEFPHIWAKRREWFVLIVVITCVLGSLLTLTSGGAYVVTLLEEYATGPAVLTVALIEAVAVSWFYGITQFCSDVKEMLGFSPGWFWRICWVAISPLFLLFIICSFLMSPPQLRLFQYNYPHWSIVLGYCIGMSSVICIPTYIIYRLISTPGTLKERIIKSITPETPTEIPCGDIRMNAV

## NC(=O)CSC(c1ccccc1)c1ccccc1 [4a, 2-(Benzhydrylthio)acetamide]
[1]
  inhibition: < 50%

## CNC(=O)CSC(c1ccc(Br)cc1)c1ccc(Br)cc1 [4i, 2-((Bis(4-bromophenyl)methyl)thio)-N-methylacetamide]
[2]
  improvement in DAT affinity vs unsubstituted analogue: 6 fold
[3]
  increase in SERT affinity vs unsubstituted analogue: > 50 fold

## C=CCNC(=O)CSC(c1ccccc1)c1ccccc1 [4j, N-Allyl-2-(benzhydrylthio)acetamide]
[1]
  inhibition: < 50%

## O=C(CSC(c1ccccc1)c1ccccc1)NCC1CC1 [4o, 2-(Benzhydrylthio)-N-(cyclopropylmethyl)acetamide]
[1]
  inhibition: < 50%

## O=C(CSC(c1ccc(Br)cc1)c1ccc(Br)cc1)NCC1CC1 [4q, 2-((Bis(4-bromophenyl)methyl)thio)-N-(cyclopropylmethyl)acetamide]
[1]
  inhibition: < 50%

## CCCCNC(=O)CSC(c1ccccc1)c1ccccc1 [4r, 2-(Benzhydrylthio)-N-butylacetamide]
[1]
  inhibition: < 50%

## O=C(CSC(c1ccccc1)c1ccccc1)NCCCc1ccccc1 [4u, 2-(Benzhydrylthio)-N-(3-phenylpropyl)acetamide]
[1]
  inhibition at 100 µM: < 50%

## O=C(CSC(c1ccc(F)cc1)c1ccc(F)cc1)NCCCc1ccccc1 [4v, 2-((Bis(4-fluorophenyl)methyl)thio)-N-(3-phenylpropyl)acetamide]
[1]
  inhibition at 100 µM: < 50%

## O=C(CSC(c1ccc(Cl)cc1)c1ccc(Cl)cc1)NCCCc1ccccc1 [4w, 2-((Bis(4-chlorophenyl)methyl)thio)-N-(3-phenylpropyl)acetamide]
[3]
  displacement at the SERT: no displacement
[1]
  inhibition at 100 µM: < 50%

## O=C(CSC(c1ccc(Br)cc1)c1ccc(Br)cc1)NCCCCc1ccccc1 [4z, 2-((Bis(4-bromophenyl)methyl)thio)-N-(4-phenylbutyl)acetamide]
[3]
  displacement at the SERT: no displacement
[1]
  inhibition at 100 µM: < 50%

## Cc1ccc(C(c2ccc(C)cc2)[S+]([O-])CC(N)=O)cc1 (stereo not drawn) [5a, 2-((Di-p-tolylmethyl)sulfinyl)acetamide]
[1]
  inhibition: < 50%

## NC(=O)C[S+]([O-])C(c1cccc(F)c1)c1cccc(F)c1 (stereo not drawn) [5c, 2-((Bis(3-fluorophenyl)methyl)sulfinyl)acetamide]
[1]
  inhibition: < 50%

## NC(=O)C[S+]([O-])C(c1cccc(Cl)c1)c1cccc(Cl)c1 (stereo not drawn) [5d, 2-((Bis(3-chlorophenyl)methyl)sulfinyl)acetamide]
[1]
  inhibition: < 50%

## NC(=O)C[S+]([O-])C(c1ccccc1)c1cccc(Br)c1 (stereo not drawn) [5e, 2-(((3-Bromophenyl)phenylmethyl)sulfinyl)acetamide]
[3]
  displacement at the SERT: no displacement
[1]
  inhibition: < 50%

## CNC(=O)C[S+]([O-])C(c1ccccc1)c1ccccc1 (stereo not drawn) [5f, 2-(Benzhydrylsulfinyl)-N-methylacetamide]
[1]
  inhibition: < 50%

## O=C(C[S+]([O-])C(c1ccc(Br)cc1)c1ccc(Br)cc1)NCCCc1ccccc1 (stereo not drawn) [5g, 2-((Bis(4-bromophenyl)methyl)sulfinyl)-N-(3-phenylpropyl)acetamide]
[1]
  inhibition at 100 µM: < 50%

## NCCSC(c1ccccc1)c1ccccc1 [6a, 2-(Benzhydrylthio)ethan-1-amine]
[2]
  improved DAT affinity compared to (±)-1: about 20 fold

## NCCSC(c1ccc(Br)cc1)c1ccc(Br)cc1 [6c, 2-((Bis(4-bromophenyl)methyl)thio)ethan-1-amine]
[2]
  improvement in DAT affinity vs unsubstituted analogue: 3 fold
[3]
  increase in SERT affinity vs unsubstituted analogue: 9 fold

## hSERT-WT (Homo sapiens)
[4]
  Km: 520 [360–760] nM
